Measured values reported in patent publication US20110263588A1, “TRICYCLIC COMPOUNDS AS GLUTAMATE RECEPTOR MODULATORS” (GLAXO GROUP LIMITED, priority 2008, published 2011).

What follows are compounds tested against T1, human mGlu5 recombinant receptor (Homo sapiens, UniProt P41594) (assay: mGluR5 calcium mobilization in inducible mGluR5 CHO cells (aequorin luminescence, antagonist mode)). Conditions: Table 3; antagonist activity against EC80 glutamate, inducible CHO cell line expressing human mGlu5 and Aequorin; read-out: IC50 (uM) Ca^++ flux.
T1 construct: expressed in transfected cells; host or cells: inducible CHO cell line stably expressing Aequorin (Euroscreen FAST); doxycycline-responsive promoter
Type: cell-based
Text: mGluR5 Calcium Mobilization in Inducible mGluR5 CHO Cells
To functionally measure mGluR5 calcium mobilization in response to agonists or antagonists, an inducible CHO cell line expressing the human mGlu5 recombinant receptor was used. This cell line also stably expressed Aequorin (Euroscreen FAST), a photoprotein that spontaneously couples with coelenterazine h when added exogenously in the cell media. The Aequorin-coelenterzine h complex undergoes a conformational change upon binding of calcium ions which results in the emission of blue light (wavelength 469 nm) that was measured using a Hamamatsu Functional Drug Screening System 6000.
mGluR5 expression was induced by a doxycycline responsive promoter by growing cells to mid-log phase for 18 hours in media without antibiotics and supplemented with doxycycline (600 ng/mL). Cells were detached from the plate by gentle flushing using PBS-EDTA (5 mM EDTA) and centrifuged for collection and resuspended in “assay buffer” (HBSS, 2.1 mM CaCl2, 2 ug/mL glutamate-pyruvate transaminase, 4 mM MEM sodium pyruvate, and 0.1% protease free BSA). Cells were incubated with coelenterazine h (Molecular Probes) at room temperature for 4 hours before testing.
To measure mGluR5 antagonist activity, cell suspensions containing test compound were mixed with EC80 glutamate and emission of light was recorded. Reference and test compounds were tested at several concentrations in duplicate to obtain dose response curves using the Prism GraphPad software (GraphPad Software Inc.). IC50 values were calculated from the dose response curves using the equation:
Y=Bottom+(Top−Bottom)/(1+10̂((LogEC50−X)*HillSlope)).

T1 sequence (P41594 21-1212): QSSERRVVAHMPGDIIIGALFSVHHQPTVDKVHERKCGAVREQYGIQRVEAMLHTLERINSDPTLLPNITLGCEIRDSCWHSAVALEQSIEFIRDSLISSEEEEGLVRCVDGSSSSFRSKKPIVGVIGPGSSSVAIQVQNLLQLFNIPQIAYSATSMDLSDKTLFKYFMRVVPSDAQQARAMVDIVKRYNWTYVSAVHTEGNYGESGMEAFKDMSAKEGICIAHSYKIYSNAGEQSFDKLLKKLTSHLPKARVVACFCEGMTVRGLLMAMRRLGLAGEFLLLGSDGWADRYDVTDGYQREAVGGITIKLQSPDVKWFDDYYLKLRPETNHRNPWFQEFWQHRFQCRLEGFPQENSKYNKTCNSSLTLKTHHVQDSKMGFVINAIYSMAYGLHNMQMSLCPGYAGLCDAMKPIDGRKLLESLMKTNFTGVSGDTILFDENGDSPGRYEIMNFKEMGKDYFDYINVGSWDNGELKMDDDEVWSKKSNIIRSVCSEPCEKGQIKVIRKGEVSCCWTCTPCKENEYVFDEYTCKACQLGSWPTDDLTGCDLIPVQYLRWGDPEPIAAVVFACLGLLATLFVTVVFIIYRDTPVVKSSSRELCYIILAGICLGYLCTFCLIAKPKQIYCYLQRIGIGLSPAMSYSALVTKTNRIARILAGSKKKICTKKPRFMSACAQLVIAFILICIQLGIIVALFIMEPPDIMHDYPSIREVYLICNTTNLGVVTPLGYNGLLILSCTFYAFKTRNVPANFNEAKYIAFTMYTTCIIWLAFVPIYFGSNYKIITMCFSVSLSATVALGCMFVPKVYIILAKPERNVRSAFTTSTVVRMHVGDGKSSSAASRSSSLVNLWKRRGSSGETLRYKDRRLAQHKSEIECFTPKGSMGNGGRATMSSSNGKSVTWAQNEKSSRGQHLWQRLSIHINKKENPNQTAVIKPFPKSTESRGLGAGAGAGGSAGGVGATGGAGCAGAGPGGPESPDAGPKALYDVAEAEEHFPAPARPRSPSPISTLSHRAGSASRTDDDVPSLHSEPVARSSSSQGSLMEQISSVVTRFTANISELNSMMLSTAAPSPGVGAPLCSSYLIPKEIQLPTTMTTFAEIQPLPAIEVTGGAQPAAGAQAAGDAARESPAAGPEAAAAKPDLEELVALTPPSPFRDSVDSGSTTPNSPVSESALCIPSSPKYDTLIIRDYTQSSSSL

| IC50 | Structure (SMILES) |
| --- | --- |
| 1 to 10 µM | COc1ccc(Cl)cc1NC(=O)c1nn(C)c2c1COc1ccccc1-2 [N-(5-chloro-2-methoxyphenyl)-1-methyl-1,4-dihydrochromeno[4,3-c]pyrazole-3-carboxamide] |
| < 1 µM | Cn1nc(C(=O)Nc2ccc(Cl)cn2)c2c1-c1ccccc1OC2 [N-(5-chloropyridin-2-yl)-1-methyl-1,4-dihydrochromeno[4,3-c]pyrazole-3-carboxamide] |
| > 10 µM | O=C(Nc1cccnc1)c1n[nH]c2c1COc1ccccc1-2 [N-(pyridin-3-yl)-1,4-dihydrochromeno[4,3-c]pyrazole-3-carboxamide] |
